Laboratory results reported in BigSolDB 2.1.

NC(=O)N/N=C/c1ccc([N+](=O)[O-])o1
solubility (mole fraction)
Conditions	in DMF	in acetone	in acetonitrile	in ethanol	in formamide	in isopropanol	in methanol	in n-propanol	in water
278.15 K	0.0219	0.000298	8.46e-05	6.97e-05	0.00169	7.04e-05	0.000148	8.53e-05	1.31e-05
283.15 K	0.0227	0.000345	0.000103	8.33e-05	0.00191	9.57e-05	0.000172	0.000106	1.62e-05
288.15 K	0.0235	0.000392	0.000123	0.0001	0.00208	0.000113	0.000201	0.00013	1.88e-05
293.15 K	0.0246	0.000443	0.000146	0.000121	0.00239	0.000131	0.000233	0.000149	2.29e-05
298.15 K	0.0265	0.000512	0.000176	0.000143	0.00267	0.000169	0.000282	0.000188	2.92e-05
303.15 K	0.028	0.000568	0.000211	0.000175	0.00298	0.000216	0.000326	0.000236	3.66e-05
308.15 K	0.0289	0.000647	0.000247	0.000213	0.00334	0.000262	0.000387	0.000285	4.5e-05
313.15 K	0.0305	0.000738	0.000288	0.000253	0.00364	0.000344	0.00044	0.000368	5.89e-05
